Values of other authors, collected in patent US20040013710A1, “Hydrolyzable tannin extracts from plants effective at inhibiting bacterial adherence to surfaces” (priority 2003, published 2004).

Tested on: type 1 E. coli

SMILES: O=C(CO)[C@@H](O)[C@H](O)[C@H](O)CO [fructose]
- inhibition of Type I adherence: inhibited
